Structures can show the parent of a compound that is named as a salt.
Key:
[1] = system: isoprenaline-induced tachycardia; settings: in vivo; cited from earlier work
[2] = system: ouabain-induced arrhythmias; settings: in vivo; cited from earlier work
[3] = system: Aspergillus awamori transformed with the aequorin gene; experiment: Example 6: aequorin luminometry of [Ca2+]c response (toxicity) in Aspergillus awamori; format: cell-based; settings: FIG. 1A
[4] = Stability in aqueous solution; format: physicochemical; settings: only freshly made stocks are effective; product a lot less toxic
Excerpt: 4 pairs of optical enantiomers or salts thereof of the following chemicals were used in this study: • (R)-(+)-α-Methylbenzyl isocyanate and (S)-(−)-α-Methylbenzyl isocyanate. Only freshly made stocks of α-Methylbenzyl […] are effective.

CC(C)NCC(O)COc1cccc2ccccc12 (single isomer, unassigned; (+)) [(+)-propranolol]
activity in blocking isoprenaline-induced tachycardia relative to racemic propranolol [1]: less than a hundredth the activity of racemic propranolol
effectiveness in abolishing ouabain-induced arrhythmias [2]: equally effective

COC(=O)C1=C(C)NC(C)=C([N+](=O)[O-])[C@@H]1c1ccccc1C(F)(F)F [(R)-(+)-BAY K8644]
[Ca2+]c response to 10 μM (S)-(−)-BAY K8644 ([3]; preincubation 5 min with 10 μM simple dilution, n=6): significant inhibition
[Ca2+]c final resting level ([3]; preincubation with 10 μM, then 10 μM (S)-(−)-BAY K8644): lower

CC(N=C=O)c1ccccc1 (stereo not drawn) [α-Methylbenzyl isocyanate]
stability in aqueous solution [4]: will react with water

CC(C)NCC(O)COc1cccc2ccccc12 (racemic) [propranolol hydrochloride]
effectiveness in abolishing ouabain-induced arrhythmias [2]: equally effective

(S)-(−)-propranolol hydrochloride [(S)-(−)-propranolol HCl]
effectiveness in abolishing ouabain-induced arrhythmias [2]: little effect

From US8071630B2 (priority 2002, dated 2011)
